Measured values as given in patent US12398122B2, “Resolvin analogs compounds, methods and uses thereof” (VALORISATION RECHERCHE HSCM, LIMITED PARTNERSHIP, priority 2022, dated 2025).

Tests used:
MMP-13 = test: Inhibition of MMP-13 production in human OA chondrocytes; format: cell-based; conditions: Chondrocyte, IL-1β 1 ng/ml one hour then compound 24 hours
Procedure: The effect of RvD1 analogs on the expression of MMP-13, a key enzyme involved in the degradation of OA cartilage, was investigated. Chondrocytes from human osteoarthritic cartilage were treated with IL-1β (1 ng/ml) for one hour followed by another treatment with RvD1 and its analogues for 24 hours.

[1] = Reactive oxygen species (ROS) production in acellular environment (DCFH-DA probe); conditions: 1 μM, ROS generated with CuCl2 (1 mM) and H2O2 (1 mM) for 10 min
Procedure: ROS were generated by incubating in black 96-well plate with CuCl2 (1 mM) with H2O2 (1 mM) for 10 min. Subsequently, RvD1, I-1 and I-2 at 1 μM were added before the addition of the DCFH-DA probe.

[2] = H2O2-induced hyaluronic acid fragmentation (agarose gel, Stains-All); conditions: HA 1 mg/ml, pretreated 1 hour at 1 or 10 μM, then 1 mM H2O2 for 4 hours; preliminary data
Procedure: Commercial hyaluronic acid was solubilised in sterilized PBS (1 mg/ml) during overnight under gentile shaking. The solution was pretreated with N-acetyl-Cysteine (NAC), RvD1, compounds I-1 and I-2 at 1 or 10 μM for 1 hour and then treated with 1 mM H2O2 during 4 hours. Samples were mixed in loading buffer containing 1M sucrose and loaded in 1% agarose/1× Tris-borate-EDTA (TBE) and pre-run the gel for 6 hours at 40V in 1× TBE buffer. The gel was then equilibrated with 30% ethanol in water and stained with Stains-All solution containing 0.1 mg Stains-All and 30% ethanol for overnight in the dark. Next, the gel was equilibrated in water for 1 hour and then exposed to light for destaining. Finally, hyaluronic acid was visualized using Alpha Imager under light transillumination. Results are shown in FIG. 4, where arrows show hyaluronic acid fragments (n=2), Al=I-1; A2=I-2.
This part of experiments was designed to investigate the ability of RvD1 analogues to protect hyaluronic acid against H2O2-induced degradation (antioxidant effect). To do so, the polymer at 1 mg/ml was pretreated by RvD1 and their analogues for 1 hour and then after treated with 1 mM H2O2 for 4 hours.

[3] = Ultraviolet-induced hyaluronic acid (HA) degradation; conditions: 1 μM, HA 1 mg/ml in PBS, UV for 4 hours (n=3)
Procedure: In order to study the protective effect of RvD1 and its analogs on the stability of hyaluronic acid (HA), a solution of commercial HA was prepared in PBS at a concentration of 1 mg/ml, then exposed to Ultraviolet rays (UV) for 4 hours in the presence or absence of RvD1 and compounds I-1 and I-2 at a dose of 1 μM. 20 μg of HA were loaded into an agarose gel (1% prepared in TBE buffer). After 4 hours of migration at 40 volts, the HA was visualized after staining with Stains-All dissolved in 30% ethanol.

human OA chondrocytes = test: Reactive oxygen species (ROS) production in human OA chondrocytes (DCFH-DA probe); format: cell-based; conditions: 1 μM, 0.5 mM H2O2 for 2 hours
Procedure: In a second step, the study was continued to explore the antioxidant effect of RvD1 and compounds I-1 and I-2 in a cell medium. Thus, human OA chondrocytes with osteoarthritis were seeded in black plates at a rate of 5×10^4 cells per well in 10% FBS DMEM medium (phenol red free) and incubated for 24 h at 37° C., and then treated with 0.5 mM H2O2 for 2 hours in the presence or absence of RvD1 and the compounds I-1 and I-2 at a concentration of 1 μM. The generation of ROS was measured by the addition of 10 μM of the DCFH-DA probe and fluorescence was measured using a microplate reader with Fluorescence Polarization (Polar Star Optima, BMG Labtech) set up at ex. 485 nm and em. 530 nm.

[4] = system: osteoclasts from monocytes of peripheral blood of healthy donors; test: Osteoclast recruitment: differentiation of peripheral blood monocytes into osteoclasts (TRAP-positive cells); format: cell-based, human; conditions: 500 ng, 14 days, 50 ng/ml RANKL + 10 ng/ml M-CSF, 2×10^5 monocytes/chamber (n=3)
Procedure: The effect of RvD1 analogs on the differentiation of macrophages into osteoclasts was investigated. Monocytes from peripheral blood of healthy donors were cultured in culture chambers at 2×10^5 monocytes/chamber in the presence of 50 ng/ml RANKL+10 ng/ml M-CSF for 14 days, in the presence or absence of 500 ng of compounds I-1 and I-2 (n=3).

Raw264.7 macrophages = test: Cell viability (MTS) assay, cytotoxicity in Raw 264.7 macrophages; format: cell-based, mouse; conditions: Raw264.7 macrophages, 0, 0.1, 0.25, 0.5 and 1 μM, 24 h incubation
Procedure: Murine macrophage RAW 264.7 (ATCC, Manassas, VA, USA) were cultured with AMEM/10% FBS and antibiotics at 37° C. in a humidified atmosphere with 5% CO2. Primary human monocytes were isolated from whole blood obtained from healthy volunteers. Briefly, blood was centrifuged on a Ficoll-Paque density gradient, according to the manufacturer's recommendations. Isolated monocytes were then cultured in RPMI 1640 medium supplemented with 10% FBS, and antibiotics. All donors provided written, informed consent for the use of their blood for research purposes. Experimental protocols were approved by the Research Ethics Board of the “[…] du Sacré-Coeur de Montreal”. Raw264.7 cells were treated for 24 hours with increasing concentrations of compounds I-1 and I-2 (0, 0,1, 0,25, 0,5, and 1 μM). Cell viability was assessed with MTS assay kit (Promega Corporation, Madison, WI, USA), as described by the manufacturer. Absorbance was measured with the micro-ELISA Vmax photometer (Bio-Tek Instruments, Winooski, VT, USA). Cell viability was evaluated by 3-(4,5-dimethyl-thiazoyl)-2,5-diphenyl-SH-tetrazolium bromide assay. ANOVA test was performed to compare the results. Results are expressed as mean±SEM for n=3. This part of the experiment was designed to test the cytotoxic effect of compounds 1-1 and 1-2 on mouse Raw264.7 macrophages. […]

[5] = system: human isolated monocytes/macrophages-RANKL/M-CSF-derived osteoclasts; test: TRAP staining, osteoclast differentiation of RANKL/M-CSF-treated human monocytes; format: cell-based; conditions: 500 nM, 14 days, 50 ng/ml RANKL and 10 ng/ml M-CSF
Procedure: (§1) Murine macrophage RAW 264.7 (ATCC, Manassas, VA, USA) were cultured with AMEM/10% FBS and antibiotics at 37° C. in a humidified atmosphere with 5% CO2. Primary human monocytes were isolated from whole blood obtained from healthy volunteers. Briefly, blood was centrifuged on a Ficoll-Paque density gradient, according to the manufacturer's recommendations. Isolated monocytes were then cultured in RPMI 1640 medium supplemented with 10% FBS, and antibiotics. All donors provided written, informed consent for the use of their blood for research purposes. Experimental protocols were approved by the Research Ethics Board of the “Hôpital du Sacré-Coeur de Montreal”.
Isolated human monocytes were isolated as described previously, seeded in chambered cell culture slides at 8×10^4 cells/well, and treated with 50 ng/ml RANKL and 10 ng/ml M-CSF in the presence or absence of 500 nM of compounds I-1 and I-2 for 14 days. Culture medium was changed every 3 days. TRAP staining performed as recommended by the manufacturer. […] Results are shown in FIG. 3, where arrows show osteoclasts with three nuclei or more (b). R=RANKL; M=M-CSF.
Here, the impact of RvD1 analogues treatment on human isolated monocytes/macrophages-RANKL/M-CSF-derived osteoclasts was eveluated, by measuring their phenotypic markers, namely TRAP. […]

[6] = system: human monocyte-derived osteoclasts; test: Hydroxyapatite matrix resorption by human monocyte-derived osteoclasts (von Kossa staining); format: cell-based; conditions: 500 nM, M-CSF/RANKL-differentiated cells, p<0.01 (n=3)
From the text: The effect of RvD1 analogs on the resorption activity of human monocyte-derived osteoclasts was investigated. Results were obtained as described in Benabdoun et al. 2019 and are shown in FIG. 10, where data were expressed as % resorption area/osteoclast with three nuclei or more (n=3).

TNFα = test: Inhibition of IL-1β-induced TNFα production in Raw264.7; format: cell-based, mouse; conditions: Raw264.7, 1 μM, pretreated 1 h then 1 ng/ml IL-1β for 24 h, compared to IL-1β alone
Procedure: as §1
It is well-documented that the RvD1 is considered as a potent anti-inflammatory mediator. Thus, the purpose of this part of the present study was to investigate whether compounds I-1 and I-2's capacity to inhibit pro-inflammatory cytokines, such as TNFα. To do so, Raw264.7 were pretreated with compounds I-1 and I-2 at different concentrations (0, 0.1, 0.5, and 1-μM) for 1h, followed by exposure to 1 ng/ml IL-1β for 24 h. […] As such, it may be concluded that compounds I-1 and I-2 inhibit TNFα production.

COX-2 [7] = test: COX-2 protein expression by Western blotting in Raw264.7 macrophages; format: cell-based, mouse; conditions: Raw264.7 macrophages, 0, 0.25, 0.5, 1 μM for 1 hour, then 1 ng/ml IL-1β for 24 hours (n=2)
Procedure: 20 μg of total proteins of Raw264.7 macrophages lysates, treated under the indicated conditions, were loaded for discontinuous 4-12% sodium dodecyl sulfate-polyacrylamide gel electrophoresis. They were then transferred electrophoretically onto nitrocellulose membranes (Bio-Rad Laboratories, Mississauga, ON, Canada) for protein immunodetection and semi-quantitative measurement. The primary antibodies deployed were rabbit anti-COX-2 (Cayman Chemical Company) and mouse anti-β-actine (Sigma). […] Immunoreactive proteins were detected with SuperSignal blotting substrate (Pierce, Rockford, IL) and exposed to Kodak X-Omat™ film (Eastman Kodak Company, Rochester, NY).
Here, the hypothesis whether RvD1 analogues have the ability to modulate COX-2 protein expression was tested. Raw264.7 macrophages were pretreated with increasing doses of compound I-2 (0, 0.25, 0.5, 1-μM) for 1 hour and treated then after with 1 ng/ml IL-1β for 24 hours.

COX-2 [8] = test: COX-2 expression in human OA chondrocytes by Western blot; format: cell-based; conditions: 10 μM, 1 hour then IL-1β 1 ng/ml for 24 hours
Procedure: Cells were seeded in 24-well flat plates at a confluence of 5×10^5 cells per well in 10% FBS DMEM medium and incubated for 24 h at 37° C. Then, the cells were treated with I-1 at different doses (0-10 μM) for 1 hour followed by a second treatment with IL-1β for 24 hours (1 ng/ml). COX-2 expression was assessed by Western blot by specific anti-COX-2 antibody.

Structure (SMILES)	inhibition at 10 µM (MMP-13; 10 μM)	level of ROS in acellular medium [1]	H2O2-induced hyaluronic acid fragmentation [2]	HA degradation by UV exposure [3]	generation of ROS by chondrocytes (human OA chondrocytes)	formation of osteoclasts (3 or more nuclei) [4]	inhibition at 20 µM (MMP-13)	cell viability (Raw264.7 macrophages)	osteoclasts differentiation (TRAP) [5]	erosion of the hydroxyapatite matrix (% resorption area/osteoclast) [6]	reduction of TNFα level (TNFα)	IL-1β-induced COX-2 protein expression (COX-2 [7])	COX-2 expression (COX-2 [8])
CC/C=C\C[C@H](O)/C=C/C=C\C=C\C=C\[C@@H](O)[C@@H](O)C/C=C\CCC(=O)O [RvD1, 7S,8R,17S-trihydroxy-4Z,9E, 11E,13Z,15E,19Z-docosahexaenoic acid, reference compound]	~20%	level of ROS decreases	prevent H2O2-induced fragmentation	prevents HA degradation by UV exposure	significantly reduced the generation of ROS								
CCCCC[C@H](O)c1c(/C=C/[C@@H](O)[C@@H](O)C/C=C\CCC(=O)O)nc(C)n1C [I-2, (4Z,7S,8R,9E)-7,8-dihydroxy-10-(5-((S)-1-hydroxyhexyl)-1,2-dimethyl-1H-imidazol-4-yl)deca-4,9-dienoic acid]		level of ROS decreases	prevent H2O2-induced fragmentation	prevents HA degradation by UV exposure	significantly reduced the generation of ROS	inhibited the formation of large osteoclasts	~20%	did not alter the cell viability	strongly prevent osteoclasts differentiation	significantly reduced erosion of the hydroxyapatite matrix to almost control level	40%	reduced IL-1β-induced COX-2 protein expression	
CCCCC[C@H](O)c1c(/C=C/[C@@H](O)[C@@H](O)C/C=C\CCC(=O)OC)nc(C)n1C [I-1, methyl (4Z,7S,8R,9E)-7,8-dihydroxy-10-(5-((S)-1-hydroxyhexyl)-1,2-dimethyl-1H-imidazol-4-yl)deca-4,9-dienoate]		level of ROS decreases	prevent H2O2-induced fragmentation	prevents HA degradation by UV exposure	significantly reduced the generation of ROS	inhibited the formation of large osteoclasts	~20%	did not alter the cell viability	strongly prevent osteoclasts differentiation	significantly reduced erosion of the hydroxyapatite matrix to almost control level	40%		reduces COX-2 expression
